Assay results from ChEMBL document CHEMBL1201862, “PubChem BioAssay data set” (2004).
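These data come from cells grown in 96-well plates and exposed to compound for 48 hours at five concentrations. At the GI50, growth is halved.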 Active and inactive are the calls of the source. No stated cut-off is given here; in the data, active = GI50 up to about 1.1 µM and inactive = higher.

Experiments:
Experiment in all cases: growth of human tumour cells (NCI), 48 h
786-0 = tested on: 786-0
A498 = tested on: A498
BT-549 = tested on: BT-549
HCC 2998 = tested on: HCC 2998
HCT-15 = tested on: HCT-15
HT-29 = tested on: HT-29
Hs-578T = tested on: Hs-578T
LOX IMVI = tested on: LOX IMVI
M14 = tested on: M14
NCI-H226 = tested on: NCI-H226
NCI-H23 = tested on: NCI-H23
NCI-H522 = tested on: NCI-H522
OVCAR-8 = tested on: OVCAR-8
SF-295 = tested on: SF-295
SN12C = tested on: SN12C
SNB-19 = tested on: SNB-19
SNB-75 = tested on: SNB-75
T47D = tested on: T47D
TK-10 = tested on: TK-10
UACC-257 = tested on: UACC-257

Structure (SMILES)	GI50 (786-0)	GI50 (A498)	GI50 (BT-549)	GI50 (HCC 2998)	GI50 (HCT-15) [µM]	GI50 (HT-29)	GI50 (Hs-578T)	GI50 (LOX IMVI)	GI50 (M14)	GI50 (NCI-H226)	GI50 (NCI-H23)	GI50 (NCI-H522)	GI50 (OVCAR-8)	GI50 (SF-295)	GI50 (SN12C)	GI50 (SNB-19)	GI50 (SNB-75)	GI50 (T47D)	GI50 (TK-10)	GI50 (UACC-257)
COc1cc(C(=O)NC2CCc3cc(OC)c(OC)c(OC)c3-c3ccc(OC)c(=O)cc32)cc(OC)c1OC (stereo not given)	0.288 µM (active)	0.274 µM (active)	0.083 µM (active)	0.0776 µM (active)	3.53	0.0467 µM (active)	0.025 µM (active)	0.0424 µM (active)	0.202 µM (active)	0.444 µM (active)	0.0809 µM (active)	0.0234 µM (active)	0.201 µM (active)	0.153 µM (active)	0.199 µM (active)	0.138 µM (active)	0.13 µM (active)	18.8 µM (inactive)	1.49 µM (inactive)	0.0938 µM (active)
CC(=O)OC1=CC(n2cc(F)c(=O)[nH]c2=O)OC(C)C1=O (stereo not given)	26.4 µM (inactive)	10.4 µM (inactive)	22.2 µM (inactive)	5.26 µM (inactive)	8.95	10.7 µM (inactive)	> 88.3 µM (inactive)	14.6 µM (inactive)	61.2 µM (inactive)	> 97.3 µM (inactive)	19.1 µM (inactive)	> 95.5 µM (inactive)	40.7 µM (inactive)	48.9 µM (inactive)	67.8 µM (inactive)	61.9 µM (inactive)	51.1 µM (inactive)	16.7 µM (inactive)	> 77.4 µM (inactive)	57.1 µM (inactive)
C=C1C(=O)O[C@H]2C[C@@]3(C)[C@H](O)CCC(=C)[C@@H]3[C@@H](OC(C)=O)[C@H]12	5.85 µM (inactive)	17.8 µM (inactive)	7.33 µM (inactive)	15.1 µM (inactive)	1.85	5.92 µM (inactive)	14.3 µM (inactive)	5.43 µM (inactive)	5.9 µM (inactive)	15.2 µM (inactive)	10.7 µM (inactive)	1.73 µM (inactive)	18.7 µM (inactive)	18.9 µM (inactive)	7.83 µM (inactive)	12.9 µM (inactive)	13.1 µM (inactive)	4.65 µM (inactive)	6.15 µM (inactive)	15.4 µM (inactive)
C/C(=N\NC(=S)N1CCCC1)c1nc2cccnc2[nH]1	0.177 µM (active)	0.869 µM (active)	0.129 µM (active)	19.3 µM (inactive)	0.137	0.394 µM (active)	13.2 µM (inactive)	0.178 µM (active)	0.357 µM (active)	0.277 µM (active)	0.679 µM (active)	11.1 µM (inactive)	0.304 µM (active)	0.254 µM (active)	0.378 µM (active)	0.37 µM (active)	3.85 µM (inactive)	0.432 µM (active)	0.557 µM (active)	0.289 µM (active)
O=c1oc2ccccc2cc1-c1csc(Nc2cc(Cl)cc(Cl)c2)n1	2.27 µM (inactive)	4.94 µM (inactive)	> 54.8 µM (inactive)	> 100 µM (inactive)	> 100	2.85 µM (inactive)	12.2 µM (inactive)	2.82 µM (inactive)	> 35.5 µM (inactive)	> 35.8 µM (inactive)	> 38.1 µM (inactive)	20.9 µM (inactive)	4.11 µM (inactive)	6.35 µM (inactive)	6.31 µM (inactive)	> 24.2 µM (inactive)	2.71 µM (inactive)	15.5 µM (inactive)	20.6 µM (inactive)	> 100 µM (inactive)
CN(C)CCCN1CCC2(CCC(C(C)(C)C)CC2)CC1	1.54 µM (inactive)	2 µM (inactive)	11.3 µM (inactive)	0.21 µM (active)	2.22	0.409 µM (active)	1.89 µM (inactive)	1.42 µM (inactive)	1.85 µM (inactive)	6.82 µM (inactive)	7.48 µM (inactive)	2.49 µM (inactive)	3.8 µM (inactive)	2.03 µM (inactive)	7.35 µM (inactive)	3.27 µM (inactive)	2.08 µM (inactive)	1.88 µM (inactive)	1.66 µM (inactive)	1.41 µM (inactive)
